According to publication PMC9057582, “HIF inhibitor 32-134D eradicates murine hepatocellular carcinoma in combination with anti-PD1 therapy” (The Journal of Clinical Investigation, 2022):

What was measured:
[1] = tested on: HIF transcriptional activity; test: HIF-dependent luciferase reporter assay (FLuc/RLuc ratio) in Hep3B-c1 cells; type: cell-based; settings: Homo sapiens, 1% O2, 24 hours, read-out: IC50, inhibition of HIF-dependent reporter gene expression
Excerpt: The NCI CellMiner database contains expression data for over 25,000 mRNAs in 60 human cancer cell lines that have been exposed to more than 20,000 chemical compounds ([49]). We searched CellMiner for a compound that induced changes in gene expression that were highly correlated with those induced by acriflavine, but which was structurally unrelated to acriflavine. Compounds that satisfied the above criteria were identified and subsequently analyzed in Hep3B-c1 cells ([50]), which are stably transfected with HIF-dependent reporter plasmid p2.1, in which firefly luciferase (FLuc) coding sequences are located downstream from a hypoxia-response element (HRE) and a basal SV40 promoter; and control reporter pSVR, in which Renilla luciferase (RLuc) coding sequences are downstream of the basal SV40 promoter only (Figure 1A). The FLuc/RLuc ratio in cells exposed to 1% O2 for 24 hours is a specific measure of HIF-dependent gene expression.
Figure 1 Identification of HIF inhibitors. (A) Hep3B-c1 cells were stably transfected with firefly luciferase (FLuc) reporter p2.1, which contains a hypoxia-response element (HRE), and Renilla luciferase (RLuc) reporter pSVR. (B) Hep3B-c1 cells were incubated with vehicle (Veh; 0.1% DMSO; blue bars) or 10 μM 32-134D (red bars) at 20% O2 (n = 6) or 1% O2 (n = 12) for 24 hours. Cell lysates were assayed for Fluc/Rluc activity (mean ± SEM); *P < 0.05 versus vehicle (χ^2 test). (C) Chemical structures and IC50 values for HIF inhibitors. (D and E) Hep3B cells were exposed to 20% O2 with vehicle, or 1% O2 with vehicle (blue bar), 32-134D (red bars), 33-063 (green bars), or PT2385 (brown bars) for 24 hours and CA9 (D) and EPO (E) mRNAs were quantified by RT-qPCR. […] (F) Hep3B cells were exposed to 20% or 1% O2 in the presence of vehicle or 1% O2 in the presence of 5 μM 32-134D (n = 3 each) for 24 hours. […]
Hep3B-c1 cells ([50]) were seeded on 24-well plates. […] FLuc/RLuc ratios were determined using the Dual Luciferase Reporter Assay System (Supplemental Table 6) and the VICTOR Nivo plate reader (PerkinElmer).

[2] = tested on: Hepa1-6 tumor immune microenvironment; test: Flow cytometry of immune cell populations in Hepa1-6 tumors; type: in vivo, C57L mice; settings: 40 mg/kg daily ip, 8 days
Protocol: To analyze the mechanism by which 32-134D increased the response to anti-PD1 therapy, Hepa1-6 tumor–bearing mice were treated with 32-134D or vehicle, and immune cell populations in well-established 200-mm^3 tumors were analyzed by flow cytometry (Supplemental Figure 8). […] The pivotal role of CD8^+ T cells and NK cells in antitumor immunity is underscored by the fact that expression of CD8A and CD8B mRNA as well as KLRK1 and KLRB1 mRNA (encoding the human homologs of CD314 and NK1.1, respectively) in HCC is associated with patient survival (P < 0.05; Supplemental Table 2).
Figure 5 Effect of 32-134D on the tumor immune microenvironment. (A–H) C57L mice were injected with Hepa1-6 HCC cells subcutaneously and when tumors reached a volume of 200 mm^3, the mice were treated with vehicle or 32-134D (40 mg/kg) by daily intraperitoneal injection for 8 days. Single-cell suspensions prepared from each tumor were analyzed by flow cytometry using fluorescent antibodies against the indicated cell surface proteins. The percentage of cells positive for the indicated markers is shown (mean ± SEM, n = 6). *P < 0.05 (Mann-Whitney test). M-MDSCs and G-MDSCs, monocytic and granulocytic myeloid-derived suppressor cells; TAMs, tumor-associated macrophages.
Hepa1-6 tumors were digested with collagenase (1 mg/mL) at 37°C for 30 minutes and the resulting single-cell suspension was passed through a 70-μm cell strainer and washed twice with cold PBS. Cells were resuspended in FC buffer for subsequent flow cytometry analysis. Cells were stained with at least 2 antibodies (see Supplemental Table 6) to capture different immune cell populations. G-MDSCs: Alexa Fluor 405–conjugated anti-CD11b and FITC-conjugated anti-Ly6G; M-MDSCs: Alexa Fluor 405–conjugated anti-CD11b and FITC-conjugated anti-Ly6C; TAMs: Alexa Fluor 405–conjugated anti-CD11b and allophycocyanin-conjugated (APC-conjugated) anti-F4/80; dendritic cells: Alexa Fluor 405–conjugated anti-CD11b, FITC-conjugated anti-CD11c, and APC-conjugated anti-F4/80; cytotoxic NK cells: FITC-conjugated anti-CD3, APC-conjugated anti-NK1.1, and Alexa Fluor 405–conjugated anti-CD314; effector T cells: phycoerythrin-conjugated (PE-conjugated) anti-CD8A and Alexa Fluor 405–conjugated anti–IFN-γ; activated T cells: PE-conjugated anti-CD8A, FITC-conjugated anti-CD69, and APC-conjugated anti-CD44; regulatory T cells: APC-conjugated anti-CD4, FITC-conjugated anti-CD25, and PE-conjugated anti-FOXP3. Live cells were gated using side-scatter and forward-scatter plots, and data were acquired using FACSDiva software (Becton Dickinson). Cell populations were gated using unstained control and single stained cell samples. Data analysis was performed using FlowJo software.
Supplemental Figure 8. Effect of 32-134D on Hepa1-6 tumor immune cell microenvironment. […]

IC50 [1]: 2.5 µM
SMILES: Brc1ccc2c(-c3csc(-c4c[nH]c5c(Br)cccc45)n3)c[nH]c2c1 [Compound 32-134D]
increase in the ratio of effector T cells to TAMs [2]: 3 fold
percentage of regulatory T cells, G-MDSCs, and dendritic cells in tumors [2]: not significantly affected
percentage of CD8+IFN-γ+ effector T cells, CD8+CD44+CD69+ activated T cells, and NK1.1+CD3–CD314+ activated NK cells in tumors ([2]; P < 0.05): significantly increased
percentage of intratumoral CD11b+F4/80+ TAMs and CD11b+Ly6C+ M-MDSCs ([2]; P < 0.05): decreased percentage
